# Like-named read-outs stand apart in the source and are kept apart here.
# Experiments:
# Assay type in all cases: biochemical
# TACE = biological target: T1, TACE (Homo sapiens, UniProt P78536); experiment: TACE inhibition experiment (in vitro)
# T1 construct: made in house; host or cells: mammalian cells or insect cells
# Human MMP8 = biological target: T2, Human MMP8 (Homo sapiens, UniProt P22894); experiment: MMP8 inhibition experiment; conditions: concentration required for 50% inhibition of enzyme activity; read-out: IC50 value MMP-8
# T2 construct: purchased Calbiochem 444229
# T2 sequence (P22894 101-467): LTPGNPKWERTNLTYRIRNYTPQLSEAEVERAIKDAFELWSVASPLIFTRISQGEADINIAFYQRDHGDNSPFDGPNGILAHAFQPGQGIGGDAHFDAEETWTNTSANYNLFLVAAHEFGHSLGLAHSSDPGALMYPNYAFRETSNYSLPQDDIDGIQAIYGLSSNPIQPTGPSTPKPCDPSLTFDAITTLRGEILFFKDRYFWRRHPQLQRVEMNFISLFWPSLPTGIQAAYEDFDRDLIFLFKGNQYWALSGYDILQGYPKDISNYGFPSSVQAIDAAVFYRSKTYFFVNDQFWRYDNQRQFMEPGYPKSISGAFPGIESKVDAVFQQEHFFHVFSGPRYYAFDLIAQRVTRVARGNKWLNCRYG
# Procedure: MMP inhibition experiment may be carried out using a fluorescent synthetic substrate according to, for example, the methods of Bickett et al. (D. Mark Bickett et al., Anal. Biochem., 1993, 212, 58-64) and Nagase et al. (H. Nagase et al., J. Biol. Chem., 1994, 269, 20952-20957). The methods of inhibition experiments carried out for various MMPs are described below.
# Human MMP8 (Calbiochem #444229) in amount of 90 μL (30 ng) was activated by mixing with 10 μL of 10 mM APMA, followed by reaction for 1 hour at 37° C. This enzyme solution in amount of 10 μL was diluted to 90 μL with the assay buffer A, which was added to 90 μL of […] fluorescent substrate (MOCAc-Pro-Leu-Gly-Leu-A2pr(Dnp)-Ala-Arg-NH2, Peptide Institute, Inc., #3163-v) prepared in the assay buffer B, followed by reaction for 5 hours at 37° C.
# Human MMP1 = biological target: T3, Human MMP1 (Homo sapiens, UniProt P03956); experiment: MMP1 inhibition experiment; conditions: read-out: IC50 value MMP-1
# T3 construct: purchased Calbiochem 444208
# T3 sequence (P03956 100-469): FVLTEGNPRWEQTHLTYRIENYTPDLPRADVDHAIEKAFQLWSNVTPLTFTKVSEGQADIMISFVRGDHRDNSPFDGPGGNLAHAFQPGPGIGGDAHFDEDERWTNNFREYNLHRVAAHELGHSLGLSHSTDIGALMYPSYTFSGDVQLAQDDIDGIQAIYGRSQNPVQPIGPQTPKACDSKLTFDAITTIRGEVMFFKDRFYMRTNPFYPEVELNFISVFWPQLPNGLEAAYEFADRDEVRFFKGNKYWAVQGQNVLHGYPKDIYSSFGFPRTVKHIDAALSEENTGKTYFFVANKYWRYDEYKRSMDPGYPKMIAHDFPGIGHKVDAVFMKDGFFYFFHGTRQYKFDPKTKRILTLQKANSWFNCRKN
# Procedure: This enzyme solution in amount of 10 μL was diluted to 90 μL with the assay buffer A, which was added to 90 μL of 20 μM fluorescent substrate (Dnp-Pro-Cha(β-cyclohexylalanyl)-Gly-Cys(Me)-His-Ala-Lys(Nma)-NH2) prepared in the assay buffer B, followed by reaction for 5 hours at 37° C.
# Human MMP17 = biological target: T4, Human MMP17 (Homo sapiens, UniProt Q9ULZ9); experiment: MMP17 inhibition test; conditions: concentration required for 50% inhibition of enzyme activity; read-out: IC50 value MMP-17
# T4 construct: purchased Calbiochem 475940
# T4 sequence (Q9ULZ9 126-300 limits assumed): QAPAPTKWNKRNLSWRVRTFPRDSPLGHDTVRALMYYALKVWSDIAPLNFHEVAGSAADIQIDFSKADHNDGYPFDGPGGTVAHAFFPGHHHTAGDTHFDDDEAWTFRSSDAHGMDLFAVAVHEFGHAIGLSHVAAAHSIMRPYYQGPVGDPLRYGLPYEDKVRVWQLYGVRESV
# Human MMP9 = biological target: T5, Human MMP9 (Homo sapiens, UniProt P14780); experiment: MMP9 inhibition experiment; conditions: read-out: IC50 value MMP-9
# T5 construct: purchased Calbiochem 444231
# T5 sequence (P14780 107-707 limits assumed): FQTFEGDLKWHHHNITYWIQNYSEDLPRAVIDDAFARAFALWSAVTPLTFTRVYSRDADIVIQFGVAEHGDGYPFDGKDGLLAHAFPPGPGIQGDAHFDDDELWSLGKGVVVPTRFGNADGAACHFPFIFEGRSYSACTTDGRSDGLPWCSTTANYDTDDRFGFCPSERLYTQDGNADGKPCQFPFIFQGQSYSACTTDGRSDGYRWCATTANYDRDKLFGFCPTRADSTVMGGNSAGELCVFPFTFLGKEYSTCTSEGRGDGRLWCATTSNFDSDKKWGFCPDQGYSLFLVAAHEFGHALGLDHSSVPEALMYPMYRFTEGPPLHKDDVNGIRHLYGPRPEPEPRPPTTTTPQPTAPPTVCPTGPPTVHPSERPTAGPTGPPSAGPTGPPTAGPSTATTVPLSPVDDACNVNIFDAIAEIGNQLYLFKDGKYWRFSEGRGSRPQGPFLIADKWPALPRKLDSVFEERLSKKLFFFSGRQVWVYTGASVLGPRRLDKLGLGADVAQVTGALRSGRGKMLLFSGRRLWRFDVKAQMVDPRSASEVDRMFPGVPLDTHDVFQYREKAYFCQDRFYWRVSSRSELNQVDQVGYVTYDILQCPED
# Procedure: This enzyme solution in amount of 1 μL was diluted to 90 μL with the assay buffer A, which was added to 90 μL of 20 μM fluorescent substrate (Dnp-Pro-Cha-Gly-Cys(Me)-His-Ala-Lys(Nma)-NH2) prepared in the assay buffer B, followed by reaction for 4 hours at 37° C.
# Human MMP2 = biological target: T6, Human MMP2 (Homo sapiens, UniProt P08253); experiment: MMP2 inhibition experiment; conditions: concentration required for 50% inhibition of enzyme activity; read-out: IC50 value MMP-2
# T6 construct: purchased Calbiochem 444213
# T6 sequence (P08253 110-660): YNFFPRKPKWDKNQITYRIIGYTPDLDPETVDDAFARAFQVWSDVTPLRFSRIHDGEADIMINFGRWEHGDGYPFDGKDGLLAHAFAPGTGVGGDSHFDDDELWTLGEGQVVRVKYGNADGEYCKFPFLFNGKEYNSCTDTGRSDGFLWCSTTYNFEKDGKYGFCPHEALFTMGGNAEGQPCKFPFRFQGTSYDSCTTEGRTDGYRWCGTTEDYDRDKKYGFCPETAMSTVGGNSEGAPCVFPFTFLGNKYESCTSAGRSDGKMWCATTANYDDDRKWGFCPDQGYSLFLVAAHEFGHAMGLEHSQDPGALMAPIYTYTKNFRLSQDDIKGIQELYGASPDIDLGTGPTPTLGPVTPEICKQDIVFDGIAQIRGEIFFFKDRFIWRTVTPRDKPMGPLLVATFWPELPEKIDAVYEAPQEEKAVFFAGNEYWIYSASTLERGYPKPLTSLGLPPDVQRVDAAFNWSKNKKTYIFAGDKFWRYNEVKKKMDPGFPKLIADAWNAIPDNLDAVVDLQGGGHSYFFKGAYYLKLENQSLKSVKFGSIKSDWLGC
# Procedure: This enzyme solution in amount of 10 μL was diluted to 90 μL with the assay buffer A, which was added to 90 μL of 20 μM fluorescent substrate (MOCAc((7-methoxycoumarin-4-yl)acetyl)-Pro-Leu-Gly-Leu-A2pr(Dnp)-Ala-Arg-NH2, Peptide Institute, Inc., #3163-v) prepared in the assay buffer B, followed by reaction for 5 hours at 37° C.
# Human MMP13 = biological target: T7, Human MMP13 (Homo sapiens, UniProt P45452); experiment: MMP13 inhibition experiment; conditions: concentration required for 50% inhibition of enzyme activity; read-out: IC50 value MMP-13
# T7 construct: purchased Chemicon CC068
# Procedure: Human MMP13 (Chemicon #CC068) in amount of 90 μL (200 ng) was activated by mixing with 10 μL of 10 mM APMA, followed by reaction for 1 hour at 37° C. This enzyme solution in amount of 0.6 μL was diluted to 90 μL with the assay buffer A, which was added to 90 μL of 20 μM fluorescent substrate (Dnp-Pro-Cha-Gly-Cys(Me)-His-Ala-Lys(Nma)-NH2) prepared in the assay buffer B, followed by reaction for 4 hours at 37° C.
# Human MMP14 = biological target: T8, Human MMP14 (Homo sapiens, UniProt P50281); experiment: MMP14 inhibition experiment; conditions: concentration required for 50% inhibition of enzyme activity; read-out: IC50 value MMP-14
# T8 construct: purchased Biogenesis or Calbiochem 5980-1461 or 475935
# Outline: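 Fluorescence assay: substrate Dnp-Pro-Cha-Gly-Cys(Me)-His-Ala-Lys(Nma)-NH2 (20 μM before equal-volume mixing) incubated at 37° C for 5 hours with 4 ng human MMP14.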
# Human MMP3 = biological target: T9, Human MMP3 (Homo sapiens, UniProt P08254); experiment: MMP3 inhibition experiment; conditions: concentration required for 50% inhibition of enzyme activity; read-out: IC50 value MMP-3
# T9 construct: purchased Calbiochem 444217
# T9 sequence (P08254 100-272 limits assumed): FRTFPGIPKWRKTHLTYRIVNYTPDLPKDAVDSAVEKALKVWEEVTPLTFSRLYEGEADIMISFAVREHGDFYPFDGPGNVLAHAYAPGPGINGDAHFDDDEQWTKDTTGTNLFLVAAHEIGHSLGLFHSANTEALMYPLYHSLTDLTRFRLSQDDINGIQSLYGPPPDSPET
# Outline: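 Fluorescence-quenched substrate NFF-3 (MOCAc/Dnp peptide, 20 μM as prepared) cleaved by 5 ng human MMP3 over 5 hours at 37° C, with inhibition measured from substrate fluorescence.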
# [1] = concentration required for 50% inhibition of enzyme activity
# T1 sequence (P78536 215-824): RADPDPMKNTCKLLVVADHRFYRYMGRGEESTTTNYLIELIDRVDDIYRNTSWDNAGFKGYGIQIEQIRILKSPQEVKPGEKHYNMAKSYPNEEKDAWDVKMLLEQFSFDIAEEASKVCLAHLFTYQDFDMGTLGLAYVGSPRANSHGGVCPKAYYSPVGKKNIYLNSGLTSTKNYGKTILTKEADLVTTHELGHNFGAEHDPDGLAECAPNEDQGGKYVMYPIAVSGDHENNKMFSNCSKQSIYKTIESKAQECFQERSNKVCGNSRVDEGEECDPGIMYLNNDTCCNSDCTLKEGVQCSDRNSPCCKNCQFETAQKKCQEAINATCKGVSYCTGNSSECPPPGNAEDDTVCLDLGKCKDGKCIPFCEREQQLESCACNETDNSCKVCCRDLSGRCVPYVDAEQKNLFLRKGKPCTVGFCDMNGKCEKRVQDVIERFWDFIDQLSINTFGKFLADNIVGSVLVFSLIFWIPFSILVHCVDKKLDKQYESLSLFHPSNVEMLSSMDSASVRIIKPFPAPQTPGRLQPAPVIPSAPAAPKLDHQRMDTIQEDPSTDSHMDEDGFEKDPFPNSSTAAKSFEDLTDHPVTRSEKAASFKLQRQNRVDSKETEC
SMILES,IC50 (TACE) [µM],IC50 (Human MMP8) [µM],IC50 (Human MMP1) [µM],IC50 (Human MMP17) [µM],IC50 (Human MMP9) [µM],IC50 (Human MMP2) [µM],IC50 (Human MMP13) [µM],IC50 (Human MMP14) [µM],IC50 (Human MMP3) [µM],IC50 (TACE; [1]) [µM],IC50 (Human MMP9; [1]) [µM]
"Cc1cc(COc2ccc(S(=O)(=O)CC(C=C3CCN(C(=O)C(C)(C)C)CC3)N(O)C=O)cc2)c2ccccc2n1 (stereo not drawn) [Example I-25, N-{1-[1-(2,2-Dimethylpropionyl)piperidin-4-ylidenemethyl]-2-[4-(2-methylquinolin-4-ylmethoxy)benzenesulfonyl]ethyl}-N-hyroxyformamide]",0.01,5,40,0.12,8,1.3,0.7,20,0.11,–,–
Cc1cc(COc2ccc(S(=O)(=O)CC(C=C3CCN(C(=O)OC(C)(C)C)CC3C)N(O)C=O)cc2)c2ccccc2n1 (stereo not drawn) [Example I-61],0.0033,24,80,1.8,62,5,10,54,1.5,–,–
Cc1ccccc1C(CS(=O)(=O)c1ccc(OCc2ccc3ccccc3n2)cc1)N(O)C=O (stereo not drawn) [Example I-82],3.5,> 100,92,30,32,4.2,26,38,50,–,–
Cc1cccc(C(CS(=O)(=O)c2ccc(OCc3cc(C)nc4ccc(F)cc34)cc2)N(O)C=O)n1 (stereo not drawn) [Example I-149],0.03,> 100,> 100,23,> 100,95,35,90,26,–,–
Cc1cccc(CCC(CS(=O)(=O)c2ccc(OCc3cc(C)nc4ccccc34)cc2)N(O)C=O)n1 (stereo not drawn) [Example I-129],0.012,33,> 100,3.4,> 100,12,17,50,3.1,–,–
Cc1cc(COc2ccc(S(=O)(=O)CC(C3CSC(=O)N3C)N(O)C=O)cc2)c2ccccc2n1 (stereo not drawn) [Example I-58],0.0031,11,> 100,0.58,> 100,21,27,> 100,1.9,–,–
"Cc1cc(COc2ccc(S(=O)(=O)CC(C=C3CCSCC3)N(O)C=O)cc2)c2ccccc2n1 (stereo not drawn) [Example I-17, N-Hydroxy-N-{2-[4-(2-methylquinolin-4-ylmethoxy)benzenesulfonyl]-1-(tetrahydrothiopyran-4-ylidenemethyl)ethyl}formamide]",–,> 100,43,4,–,55,25,50,10,0.003,31
O=CON=C1CCC(=CC(CS(=O)(=O)c2ccc(OCc3ccc4ccccc4n3)cc2)N(O)C=O)CC1 (stereo not drawn) [Example I-85],0.36,70,> 100,31,56,4.5,22,60,50,–,–

# — patent US7511144B2, “Reverse hydroxamic acid derivatives” (Kaken Pharmaceutical Co., Ltd., priority 2001, dated 2009)
